Assay results reported in patent US8063108B2, “Method for modulating microbial quorum sensing” (priority 2004, dated 2011).

Target: T1, LasR transcriptional activator (Pseudomonas aeruginosa, UniProt P25084)
T1 construct: expressed in transfected cells; host or cells: Pseudomonas putida F117 carrying plasmid pKRC12 (lasR, PlasB-gfp)
Assay: Screen signal of thiocarbamate compounds (Table 1), GFP AHL sensor strain with LasR
Assay type: cell-based
Excerpt: A screening system with green fluorescent protein as a reporter gene was adapted in a non-pathogenic species, Pseudomonas putida, closely related to Pseudomonas aeruginosa. A key element involved in the regulation of Pseudomonas aeruginosa, LasR, was engineered into the GFP construct (see FIG. 2), such that expression of GFP is linked to quorum sensing. Pseudomonas putida was then subjected to induction (e.g. by 3oxoC12HsL or 3oxoC10HsL) and/or inhibition by candidate chemical compounds from a commercially available combinatorial library. About 16,000 candidate compounds were individually screened.
Many Gram negative bacteria use quorum sensing, an intercellular signaling network that relies on N-acyl homoserine lactone signal molecules (AHL), to regulate and coordinate behaviors and interactions. Expression of quorum sensing-regulated genes is contingent on a LuxR-type transcriptional regulator and the accumulation of a threshold concentration of the cognate AHL. The experiments in this example relate to screening assays carried out to identify compounds that interfere with virulence gene expression under the control of the LasR transcriptional activator, a member of the LuxR family of transcriptional regulators. The inventors screened a library of approximately 16,000 synthetic compounds for induction and inhibition of quorum sensing in a Pseudomonas putida AHL sensor strain, engineered with the LasR transcriptional activator, which controls virulence gene expression in Pseudomonas aeruginosa. LasR mediated gene expression was monitored by measuring green fluorescent protein (GFP) expression from a transcriptional fusion between GFP and the promoter from lasB, which is under the control of LasR. lasB is a virulence gene that encodes an elastase involved in pathogenesis.
The initial screen utilized 3oxoC10HSL [N-(3-oxo-decanoyl)-L-homoserine lactone] as the inducer of LasR mediated signaling to identify compounds that compete with 3oxoC10HSL for half-maximal activation of GFP expression by the AHL reporter. This strategy enables identification of agonists and antagonists of LasR by pursuing compounds that either reduce or augment the activity of the AHL. The inventors further analyzed the antagonists in competition with 3oxoC12HSL [N-(3-oxo-dodecanoyl)-L-homoserine lactone]. The activities of the agonists were further characterized in the absence of AHL.
To determine the effects of compounds on AHL-mediated quorum sensing, the reporter strain P. putida F117 pKRC12 was grown overnight at 28° C. in LB media, diluted with LB media to achieve an optical density of 0.05 at 600 nm (OD600), and 28 μl aliquots of cells were added to 384-well plates. 16,000 compounds were screened from a subset of the Chembridge DIVERSet, each at a final concentration of 100 nM. Bacterial cells at a final volume of 30 μl were incubated with the compounds for approximately 30 minutes prior to the addition of 3oxoC10HSL, at a final concentration of 100 nM. All of the compounds were dissolved in DMSO. DMSO was included in all controls. A Biomek FX liquid handler was used to dispense the reagents and bacteria into the 384-well plates. The initial screen was performed at room temperature. Fluorescence was measured at regular intervals after 3 hours using the EnVision plate reader (Perkin Elmer, inc.) with an excitation wavelength of 485 nm and emission detection at 510 nm. Compounds that reduced or increased the expression of GFP by a factor of greater than or equal three standard deviations from the mean values for controls containing 3oxoC10HSL were chosen for further analysis. Compounds that increased the expression of GFP by three standard deviations were designated as putative agonists. Compounds that decreased the expression of GFP by three standard deviations were designated as putative antagonists.

T1 sequence (P25084 whole entry): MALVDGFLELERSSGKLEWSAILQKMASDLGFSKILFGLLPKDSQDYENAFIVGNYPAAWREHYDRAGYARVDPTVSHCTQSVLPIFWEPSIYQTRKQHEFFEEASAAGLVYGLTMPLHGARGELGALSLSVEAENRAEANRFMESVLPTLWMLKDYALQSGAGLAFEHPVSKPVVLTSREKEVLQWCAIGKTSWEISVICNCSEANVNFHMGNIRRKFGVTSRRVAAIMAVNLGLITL

Row | Structure (SMILES) | Signal 671/672 | Signal 673/674 | Signal 674/875
1 | COc1ccc(NC(=O)CSC(N)=O)c(OC)c1 [Compound 5950824] | 358647 | 332745 | 1769017
2 | NC(=O)SCC(=O)Nc1ccccc1Cl [Compound 5956488] | 120221 | 145117 | 867440
3 | COc1cccc(NC(=O)CSC(N)=O)c1 [Compound 5956868] | 246680 | 243693 | 1277307
4 | Cc1cccc(NC(=O)CSC(N)=O)c1 [Compound 5955821] | 266776 | 285870 | 1575457
5 | Cc1ccc(NC(=O)CSC(N)=O)cc1Cl [Compound 5952472] | 176752 | 223255 | 652341
6 | NC(=O)SCC(=O)Nc1ccc(I)cc1 [Compound 5955203] | 375590 | 386242 | 1805793
7 | CC(=O)c1ccc(NC(=O)CSC(N)=O)cc1 [Compound 5952389] | 464145 | 594209 | 1805803
8 | Cc1cccc(NC(=O)CSC(N)=O)c1C [Compound 5956611] | 116987 | 131695 | 703195
9 | NC(=O)SCC(=O)Nc1ccc(Br)cc1 [Compound 5948339] | 99889 | 122318 | 382242
10 | CCOC(=O)c1ccccc1NC(=O)CSC(N)=O [Compound 5952120] | 29681 | 31840 | 32358
11 | NC(=O)SCC(=O)Nc1cccc(F)c1 [Compound 5949713] | 100580 | 97648 | 265386
12 | NC(=O)SCC(=O)Nc1cccc(Cl)c1 [Compound 5953997] | 71274 | 87420 | 218815
13 | Cc1ccc(NC(=O)CSC(N)=O)c(C)c1 [Compound 5955325] | 120271 | 134098 | 694077
14 | Cc1ccc(Cl)cc1NC(=O)CSC(N)=O [Compound 5948544] | 120140 | 98180 | 418594
15 | COC(=O)c1ccc(NC(=O)CSC(N)=O)cc1 [Compound 5952057] | 161090 | 186369 | 1124336
16 | COC(=O)c1ccccc1NC(=O)CSC(N)=O [Compound 5951673] | 135505 | 176618 | 1041625
17 | COc1ccc(NC(=O)CSC(N)=O)cc1 [Compound 5948690] | 580722 | 341731 | 1742777
18 | NC(=O)SCC(=O)Nc1ccc(Cl)c(Cl)c1 [Compound 5949527] | 314238 | 171491 | 686157
19 | NC(=O)SCC(=O)Nc1ccccc1O [Compound 5947920] | 31966 | 33599 | 35234
20 | COc1ccccc1NC(=O)CSC(N)=O [Compound 5947535] | 99128 | 169923 | 572429
21 | NC(=O)SCC(=O)Nc1ccccc1Br [Compound 5949674] | 184012 | 227644 | 1811011
